Laboratory results as given in patent US20220257581A1, “Treatment of Cancer” (Sumitomo Dainippon Pharma Oncology, Inc., priority 2019, published 2022).

How the values were obtained:
MDS blasts = experiment: MCL-1 dependency assay of MDS blasts after azacitidine pre-treatment; format: cell-based, human; details: MCL-1 dependency cut-off of 40%
Method: CD13, CD33, CD34, CD45, CD3 and CD20 were used as markers to identify MDS blasts, and to perform MCL-1 dependency analyses. MDS blasts were positive for CD13, CD33 and CD34, dim for CD45 and negative for CD3 and CD20.
On day 1 of the MCL-1 dependency assay, 5×10^4-1×10^5 HS-5 feeder cells were plated into a 6-well plate, and allowed to attached overnight. HS-5 feeder cells improve viability of frozen MDS bone marrow mononuclear cells (BMMCs) after thawing. On day 2 of the assay, MDS BMMCs were thawed, and divided into three treatment groups corresponding to treatment with DMSO, treatment with 1 μM azacitidine or treatment with 2.5 μM azacitidine. On day 4, after a 48-hour treatment period, MCL-1 dependency of MDS blasts, lymphocytes and monocytes were separately assessed.

[1] = test system: patients with newly diagnosed, previously untreated AML; experiment: Phase 1 dose-escalation study of alvocidib followed by 7+3: response assessments (ELN Guidelines); format: in vivo, human; details: for Overall CR, n (%): Response Evaluable Population
Method: Methods: Study Population. This was a Phase 1, open-label, multicenter, dose-escalation study of alvocidib followed by cytarabine/daunorubicin (7+3) in patients with AML (NCT03298984). Patients aged 18-65 years with newly diagnosed, previously untreated AML and pathological confirmation of bone marrow (BM) blasts 20% were eligible. Key inclusion criteria included: Eastern Cooperative Oncology Group (ECOG) performance status (PS)≤2, serum creatinine level <1.8 mg/dL, alanine aminotransferase (ALT) and aspartate aminotransferase (AST)<5 times upper limit of normal (ULN), total bilirubin <2.0 mg/dL, and left ventricular ejection fraction (EF) >45%. Patients were excluded if they had previous treatment for AML (with the exception of hydroxyurea), and were diagnosed with acute promyelocytic leukemia (APL-M3) or core-binding factor AML ((CBF-AML: t(8;21); inv(16); t(16;16)). All patients provided written informed consent. This study was conducted as per the Declaration of Helsinki after approval by ethics committee of each participating center.
Treatment Plan: Induction.
Consolidation. Patients who achieved a complete remission (CR) received 2 to 4 cycles of consolidation therapy with high dose cytarabine (HiDAC) 3 gm/m^2 IV every 12 hours on days 1, 3 and 5 upon full hematological recovery (absolute neutrophil count ≥[…] and platelets >[…]). HiDAC was permitted to be dose reduced to 1.5 gm/m^2 IV every 12 hours on days 1, 3 and 5 in those >60 years. Allogeneic stem cell transplantation was permitted after induction per standard of care but was recommended after at least 1 cycle of HiDAC consolidation in those who achieved CR.
Response Assessments. Response assessment was performed by a bone marrow aspirate and biopsy at the time of full hematologic recovery or by day 50 and day 60 of 1 versus 2 induction cycles, respectively. Response to therapy was assessed by standardized ELN Guidelines. In those who achieved CR and received consolidation therapy, a bone marrow aspirate and biopsy was performed after cycle 2 of HiDAC, after completion of consolidation therapy, and at any suspicion of relapse.

[2] = test system: patients with newly diagnosed, previously untreated AML; experiment: Kaplan-Meier time-to-event analyses and clinical outcomes of the Phase 1 study; format: in vivo, human
Excerpt: Statistical Analysis. […] Intra-patient dose escalation was not permitted. […] Database lock was on Apr. 30, 2020.

[3] = test system: patients with newly diagnosed, previously untreated AML
Method: Treatment Plan: Induction. Alvocidib was dose-escalated starting at dose level 1: 20 mg/m^2 30-minute IV bolus followed by 30 mg/m^2 IV infusion over 4 hours on Days 1-3 (FIG. 1). Daunorubicin 60 mg/m^2 IV bolus over 15 minutes was initiated on days 5-7, and cytarabine 100 mg/m^2/day IV continuous 24-hour infusion was administered on Days 5-11. A bone marrow aspirate and biopsy was performed on day 14 (+/−3 days) and patients with residual leukemia (>5% bone marrow blasts and >10% cellularity) were recommended to receive a second induction cycle with alvocidib on days 1-3 (same dose level as induction) followed by daunorubicin 45 mg/m^2/day IV over 15 minutes on days 5 and 6 and cytarabine 100 mg/m^2/day IV continuous infusion over days 5-9 (“5+2”).
Statistical Analysis. Alvocidib dose was escalated using a 3+3 design (FIG. 1). Successive cohorts of patients (3-6 per cohort) were treated with escalated doses until the maximal tolerated dose (MTD) was established. Intra-patient dose escalation was not permitted. Descriptive analysis was performed for the safety and efficacy endpoints. MTD for alvocidib was estimated by the highest alvocidib dose for which the incidence of DLT during Cycle 1 was less than 33% in combination with 7+3. Kaplan-Meier time-to-event analyses were performed on overall survival (OS), relapse-free survival and duration of remission. […]

[4] = test system: patients with newly diagnosed, previously untreated AML; experiment: Minimal residual disease (MRD) analysis of bone marrow by flow cytometry in the Phase 1 study; format: in vivo, human
Method: Minimal Residual Disease (MRD) Analysis. MRD was assessed in bone marrow samples at the time of response by a uniform central assay (Hematologics, Inc.) in an exploratory cohort, as has been previously described. Samples were first incubated with antibodies for 20 minutes at room temperature. Red blood cells were then lysed at 37° C. using buffered NH4Cl for 5 minutes, followed by centrifugation at 300 g. Cells were subsequently washed with PBS supplemented with 2% FCS and resuspended in 1% paraformaldehyde. Samples were analyzed on a FACSCalibur™ flow cytometer (Becton Dickinson Biosciences). 200,000 events were analyzed for each sample. Data analysis was performed with WinList™ software (Verity Software House). Two independent reviewers viewed each sample to arrive at a consensus on the data.

[5] = Response Evaluable Population (N = 31), alvocidib followed by 7+3

## Nc1ncn([C@@H]2O[C@H](CO)[C@@H](O)[C@H]2O)c(=O)n1 [azacitidine]
MDS blasts; 1 μM or 2.5 μM azacitidine, 48-hour treatment
  patient samples with an increase in MCL-1 dependency: 10/12
MDS blasts; patient sample MDS1060
  effect on MCL-1 dependency status of blasts: rendered MCL-1-independent blasts MCL-1 dependent

## CN1CC[C@H](c2c(O)cc(O)c3c(=O)cc(-c4ccccc4Cl)oc23)[C@H](O)C1 [alvocidib, 2-(2-chlorophenyl)-5,7-dihydroxy-8-[(3S,4R)-3-hydroxy-1-methylpiperidin-4-yl]chromen-4-one]
[1]; 3 patients re-induced with alvocidib and 5+2
  patients achieving CR after re-induction therapy: None
[1]; AML with mutated chromatin, RNA-splicing genes, or both (9/10)
  CR rate: 90%
[1]; MRD exploratory cohort of 12 patients at recommended phase 2 dose
  patients achieving CR: 75%
[1]; [5]
  CR, n (%): 22 (71.0%) n (%)
  CRi (%): 0%
  Overall CR/CRi, n (%): 22 (71.0%) n (%)
  Overall Response Rate (CR + CRi + PR): 24 (77.4%) n (%)
  PR, n (%): 2 (6.5%) n (%)
[1]; ELN-risk Adverse (n = 15)
  Overall CR, n (%): 9 (60.0%) n (%)
[1]; ELN-risk Favorable (n = 9)
  Overall CR, n (%): 8 (88.9%) n (%)
[1]; ELN-risk Intermediate (n = 7)
  Overall CR, n (%): 5 (71.4%) n (%)
[1]; SWOG cytogenetics risk Favorable (n = 0)
  Overall CR, n (%): 0 (0.0%) n (%)
[1]; SWOG cytogenetics risk Intermediate (n = 19)
  Overall CR, n (%): 15 (78.9%) n (%)
[1]; SWOG cytogenetics risk Unfavorable (n = 12)
  Overall CR, n (%): 7 (58.3%) n (%)
[1]; SWOG cytogenetics risk Unknown (n = 0)
  Overall CR, n (%): 0 (0.0%) n (%)
[1]; subgroup AML with MRC (n = 11)
  Overall CR, n (%): 6 (54.5%) n (%)
[1]; subgroup Age <60 years (n = 21)
  Overall CR, n (%): 16 (76.2%) n (%)
[1]; subgroup Age ≥60 years (n = 10)
  Overall CR, n (%): 6 (60.0%) n (%)
[1]; subgroup At MTD (n = 23)
  Overall CR, n (%): 15 (65.2%) n (%)
[1]; subgroup Secondary AML (n = 5)
  Overall CR, n (%): 3 (60.0%) n (%)
[1]; all enrolled patients
  patients with no evidence of residual leukemia on day 14 assessment: 91%
[1]; all enrolled patients (n=32)
  CR rate: 69%
  overall response rate (ORR: CR+partial remission (PR)): 75%
[1]; all enrolled, ELN adverse-risk (9 of 16)
  Overall CR rate: 56%
[1]; all enrolled, ELN favorable-risk (8 of 9)
  Overall CR rate: 89%
[1]; all enrolled, ELN intermediate-risk (5 of 7)
  Overall CR rate: 71%
[1]; dose level 1 (3 of 3), all ELN favorable-risk
  CR rate: 100%
[1]; genomic signature specific for secondary AML (ASXL1, BCOR, EZH2, SF3B1, SRSF2, STAG2, U2AF1, or ZRSR2) (11/12)
  CR rate: 92%
[1]; patients with ASXL1 mutations (5/6)
  Overall CR rate: 83%
[1]; patients with MCL-1 scores greater than 30% (10/12)
  CR rate: 83%
[1]; patients with MCL-1 scores less than 30% (10/15)
  CR rate: 67%
[1]; patients with NPM1 mutations (8/10)
  CR rate: 80%
[1]; patients with RUNX1 mutations (4/5)
  Overall CR rate: 80%
[1]; patients with a TP53 mutation (1/3)
  patients achieving CR: 33%
[1]; recommended phase 2 dose level (15/23)
  patients achieving CR: 65%
[1]; response-evaluable patients
  CR rate: 71%
  ORR: 77%
[2]; 7 relapsed CR patients, range: 1.4-13.6 months
  median duration of CR: 8.6 months
[2]; 32 patients, 95% CI: 2.0, NA
  Median EFS: 10.0 months
[2]; 32 patients, 95% CI: 41.9, 77.4%
  Landmark 1-year OS: 62.4%
[2]; 32 patients, median follow-up 9.2 months
  median OS: not reached
[2]; 95% CI: 15.4, 53.8%
  Landmark 2-year EFS: 34.1%
[2]; 95% CI: 21.9, 59.1%
  Landmark 1-year EFS: 40.9%
[2]; 95% CI: 31.7, 79.1%
  Landmark 1-year RFS: 59.5%
[2]; of the 22 CR patients
  relapsed to date: 32%
[2]; patients who achieved CR without MRD
  remain in CR: 82%
[2]; patients who achieved CR without evidence of MRD
  relapsed: 18%
[2]; time from CR/CRi up to relapse or death
  median RFS: not reached
[3]; IV bolus/IV infusion on Days 1-3, in combination with 7+3
  MTD (maximum tolerated dose) of alvocidib: (30/60 mg/m^2)
[3]; in vivo
  safety and feasibility: safe, feasible
[4]; 22 CR patients, standardized flow cytometry and/or institutional standard assessment
  MRD-negative among patients who achieved CR: 50%
[4]; ELN adverse-risk disease (4/9)
  MRD-negative among patients who achieved CR: 44%
[4]; MRD exploratory cohort, 8 of 12 patients
  MRD-negative CR, overall: 67%
[4]; MRD exploratory cohort, centralized flow cytometry (8/9)
  MRD-negative among CR patients: 89%
[4]; MRD exploratory cohort, ELN adverse-risk patients (3 out of 4)
  MRD-negative CR: 75%
[4]; MRD exploratory cohort, one patient with adverse-risk disease
  CR with evidence of MRD: 11%
